Laboratory results from publication PMC3938723, “Learning from Host-Defense Peptides: Cationic, Amphipathic Peptoids with Potent Anticancer Activity” (PLoS ONE, 2014).
Non-standard residues stand in square brackets, D forms with d. Residues, ends and D or L forms follow the SMILES beside them. Nspe = C[C@H](NCC(=O)O)c1ccccc1; NhArg = N=C(N)NCCCCNCC(=O)O; Nlys = NCCCCNCC(=O)O

Columns and labels:
[1] = tested on: Primary dermal fibroblast; assay: MTS cell viability assay, primary dermal fibroblasts; assay type: cell-based
Protocol: (§1) MCF-7, MCF-7/TxT50 and OVCAR-3 (available in ATCC) were kindly provided by Professor Branimir Sikic's lab at Stanford University, and were cultured in McCoy's 5A media (GIBCO) with 10% FBS and antibiotics. Primary dermal fibroblasts were gifts from Lifeline Cell Technology and were cultured <6 passages according to the protocol Lifeline provides. All the cells were cultured in cell incubators (Thermo Scientific) at 37°C with 5% CO2.
(§2) This assay is a colorimetric method for determining the number of viable cells in proliferation. Aliquots of 100 µl media containing 1×10^4 cells were distributed into each well of a 96-well plate (BD Falcon). The following day, when cell density reaches about ∼40% confluency, the cell media were removed and replaced with serial dilutions of peptoid stocks in culturing media. For peptoid dilutions, peptoid stocks were initially diluted in media at 100 µM and then diluted by half in series using a multichannel pipette, and maintained in 100 µl media for each concentration with triple repeats. After peptoid solutions were transferred onto cells in 96-well plates, cells were incubated at 37°C for certain time periods. Then 20 µl of the CellTiter 96 Aqueous Non-Radioactive cell proliferation assay (Promega) reagent which contains a tetrazolium compound, [3-(4,5-dimethylthiazol-2-yl)-5-(3-carboxymethoxyphenyl)-2-(4-sulfophenyl)-2H-tetrazolium, inner salt; MTS(a)], was added to each well and cells were further incubated for 2 h to metabolize. The absorbance of formazan products were measured at 490 nm in a microplate reader (Molecular Devices). Percentage of cell viability = (A -A testblank)/(A control -A blank)×100, where A is the absorbance of the test well and A control the average absorbance of wells with cells not treated with peptoids. A testblank (media, MTS, and diluted peptoids) and A blank (media and MTS) were background absorbances measured in the absence of cells.
(§3) The activity and selectivity of these peptoids against cancer cells were evaluated in vitro. Their cytotoxicity was tested in three cancer cell lines, MCF-7 (human breast cancer), LNCaP (human prostate cancer), and OVCAR-3 (human ovarian cancer). To estimate the selectivity of these peptoids in vitro, hemolytic activities of some peptoids were cited from previously published work (Table 2 **column), and the MRC-5 cell line (human fibroblasts derived from fetal lung tissues) and primary dermal fibroblasts were also tested as normal cell controls. Briefly, cells were treated with peptoids diluted in culturing media for certain time periods, and then cell viability was measured via MTS assays.

MCF-7 (breast cancer) = assay: MTS cell viability assay, MCF-7; assay type: cell-based
Protocol: as §1, §2, §3

LNCaP (prostate cancer) = assay: MTS cell viability assay, LNCaP; assay type: cell-based
Protocol: as §2, §3

human red blood cells = settings: cited from earlier work
Text: Table 2 Peptoid Cytotoxicity in cancer cell lines and control cells. | column: HC10 (µM) ** || The chain length is believed to influence not only the activity but also modes of action of cationic, amphipathic peptides, [34]. […] Thus we limited the chain length of peptoids to 13 residues at most, and studied 1 9mer which has the same charge-to-length ratio (CTLR) as peptoid ...

OVCAR3 (ovarian cancer) = assay: MTS cell viability assay, OVCAR3; assay type: cell-based
Protocol: as §1, §2, §3

[2] = tested on: MRC-5 (fetal lung fibroblast); assay: MTS cell viability assay, MRC-5; assay type: cell-based
Protocol: as §1, §2, §3

[3] = Analytical RP-HPLC elution as relative measure of molecular hydrophobicity; assay type: physicochemical; settings: percentage of acetonitrile at elution, analytic RP-HPLC, C18 column, linear water/acetonitrile (0.1% trifluoroacetic acid) gradient 5%-95% acetonitrile over 30 min
Text: Peptoids were synthesized using an ABI 433A peptide synthesizer (Applied Biosystems, Inc.) on Rink amide MBHA resin (EMD Biosciences, Gibbstown, NJ) using the submonomer protocol, [24]. Briefly, the amine on the nascent chain is bromoacetylated or chloroacetylated followed by SN2 displacement of bromide or chloride by a primary amine to form the side chain. Resin-bound peptoids were then exposed to a mixture of trifluoroacetic acid (TFA): triisopropylsilane: water (95∶2.5∶2.5, volume ratio) for 10 minutes to cleave peptoids from the resin. Crude peptoids were purified by reversed-phase high performance liquid chromatography (RP-HPLC) (Waters Corporation) using a C18 column and a linear acetonitrile/water gradient. A final purity >95% as measured by analytical RP-HPLC (Waters Corporation) was achieved, and the identity of each peptoid was confirmed using electrospray ionization mass spectrometry (ESI/MS). Pexiganan was synthesized by standard Fmoc chemistry on an ABI 433A peptide synthesizer ([…]). Unless indicated otherwise, all reagents were purchased from Sigma Aldrich (St. Louis, MO). Among the submonomers used, Nspe was derived from (S)-N-(1-phenylethyl)amine; Npm from benzylamine ([…]); NHis from histamine (2-[4-imidazolyl]ethylamine); NLeu from isobutylamine; NLys from N-tert-butoxycarbonyl-1,4-butanediamine (CNH Technologies, MA). Guanidinylation of NLys was carried out according to the reported procedure. When NHis was used in the peptoid sequence, chloroacetic acid was used. 5(6)-Carboxyfluorescein was used to label the N-terminus of peptoid 1 [28].
Peptoids were utilized herein as a peptidomimetic scaffold to capture the cationic, amphipathic nature of anticancer peptides, as well as to improve molecular stability and to increase chemical diversity. The design of anticancer peptoids were derived from previous antimicrobial peptoids and were further optimized hererin to improve the activity and selectivity of peptoids against anionic membranes, [24], [25]. […] Several novel variants were designed based on peptoid 1 but with different charges, amphipathicity, length, and helicity to change their activity or selectivity. The sequences of these variants, the solvent composition at RP-HPLC elution as a relative measure of molecular hydrophobicity, molecular net charges and their charge-to-length ratio are summarized in Table 1. […] Pexiganan, a clinically-relevant peptide analog of magainin 2 which was developed for topical treatment for diabetic foot infection, and LL-37, the only known human cathelicidin which is a non-selective antimicrobial peptide, were also tested for comparison.

[4] = normal cell control, MTS assay, 72 h treatment, media with 10% FBS, max 100 µM tested
[5] = MTS assay, 72 h treatment, media with 10% FBS, max 100 µM tested, triple repeats

With `CC[C@H](C)[C@H](NC(=O)CN)C(=O)NCC(=O)N[C@@H](CCCCN)C(=O)N[C@@H](Cc1ccccc1)C(=O)N[C@@H](CC(C)C)C(=O)N[C@@H](CCCCN)C(=O)N[C@@H](CCCCN)C(=O)N[C@@H](C)C(=O)N[C@@H](CCCCN)C(=O)N[C@@H](CCCCN)C(=O)N[C@@H](Cc1ccccc1)C(=O)NCC(=O)N[C@@H](CCCCN)C(=O)N[C@@H](C)C(=O)N[C@@H](Cc1ccccc1)C(=O)N[C@H](C(=O)N[C@@H](CCCCN)C(=O)N[C@H](C(=O)N[C@@H](CC(C)C)C(=O)N[C@@H](CCCCN)C(=O)N[C@@H](CCCCN)C(N)=O)[C@@H](C)CC)C(C)C` [Pexiganan, reference compound] (H-GIGKFLKKAKKFGKAFVKILKK-NH2) the “LC50 Primary dermal fibroblast” value [1, 4] was 19 µM, the “LC50 MCF-7 (breast cancer)” value (MCF-7 (breast cancer); [5]) was 8 µM and the “LC50 LNCaP (prostate cancer)” value (LNCaP (prostate cancer); [5]) was 6 µM. For the same molecule, the HC10 (human red blood cells) was 70 µM, the “LC50 OVCAR3 (ovarian cancer)” value (OVCAR3 (ovarian cancer); [5]) was 13 µM and the “LC50 MRC-5 (fetal lung fibroblast)” value [2, 4] was 21 µM.
For “H-(NLys-Nspe-Nspe)5-NH2 [peptoid 1 15mer, reference compound]”, the hemolytic activity (human red blood cells) is given as “substantially higher hemolytic activity”.
With `C[C@@H](c1ccccc1)N(CC(N)=O)C(=O)CN(C(=O)CN(CCCCN)C(=O)CN(Cc1ccccc1)C(=O)CN(Cc1ccccc1)C(=O)CN(CCCCN)C(=O)CN(C(=O)CN(C(=O)CN(CCCCN)C(=O)CN(Cc1ccccc1)C(=O)CN(Cc1ccccc1)C(=O)CNCCCCN)[C@@H](C)c1ccccc1)[C@@H](C)c1ccccc1)[C@@H](C)c1ccccc1` [1-Npm2,3,8,9, H-(NLys-Npm-Npm-NLys-Nspe-Nspe)2-NH2] the “LC50 Primary dermal fibroblast” value ([1]; 72 h) was 21 µM, the “LC50 MCF-7 (breast cancer)” value (MCF-7 (breast cancer); 72 h) was 9 µM and the “LC50 LNCaP (prostate cancer)” value (LNCaP (prostate cancer); 72 h) was 10 µM. The HC10 (human red blood cells) was 80 µM, the “LC50 OVCAR3 (ovarian cancer)” value (OVCAR3 (ovarian cancer); 72 h) was 11 µM and the HPLC elution [3] was 63.3 % ACN. For the same molecule, the “LC50 MRC-5 (fetal lung fibroblast)” value ([2]; 72 h) was 18 µM.
With `CC(C)CN(CC(N)=O)C(=O)CN(CCCCN)C(=O)CN(CC(C)C)C(=O)CN(CC(C)C)C(=O)CN(CCCCN)C(=O)CN(CC(C)C)C(=O)CN(CC(C)C)C(=O)CN(CCCCN)C(=O)CN(CC(C)C)C(=O)CN(CC(C)C)C(=O)CNCCCCN` [1 11mer-NLeu, H-(NLys-NLeu-NLeu)3-NLys-NLeu-NH2] the “LC50 Primary dermal fibroblast” value ([1]; 72 h) was greater than 100 µM, the “LC50 MCF-7 (breast cancer)” value (MCF-7 (breast cancer); 72 h) was greater than 100 µM and the “LC50 LNCaP (prostate cancer)” value (LNCaP (prostate cancer); 72 h) was greater than 100 µM. The “LC50 OVCAR3 (ovarian cancer)” value (OVCAR3 (ovarian cancer); 72 h) was greater than 100 µM, the HPLC elution [3] was 51 % ACN and the “LC50 MRC-5 (fetal lung fibroblast)” value ([2]; 72 h) was greater than 100 µM.
In the case of `C[C@@H](c1ccccc1)N(CC(N)=O)C(=O)CN(Cc1ccccc1)C(=O)CN(CCCCN)C(=O)CN(Cc1ccccc1)C(=O)CN(Cc1ccccc1)C(=O)CN(CCCCN)C(=O)CN(Cc1ccccc1)C(=O)CN(Cc1ccccc1)C(=O)CN(CCCCN)C(=O)CN(Cc1ccccc1)C(=O)CN(C(=O)CNCCCCN)[C@@H](C)c1ccccc1` [1 achiral-Nspe2, 12, H-NLys-Nspe-Npm-(NLys-Npm-Npm)2-NLys-Npm-Nspe-NH2], the “LC50 Primary dermal fibroblast” value ([1]; 72 h) is reported as 32 µM, the “LC50 MCF-7 (breast cancer)” value (MCF-7 (breast cancer); 72 h) is reported as 12 µM and the “LC50 LNCaP (prostate cancer)” value (LNCaP (prostate cancer); 72 h) is reported as 10 µM. For the same molecule, the “LC50 OVCAR3 (ovarian cancer)” value (OVCAR3 (ovarian cancer); 72 h) was 16 µM, the HPLC elution [3] was 62 % ACN and the “LC50 MRC-5 (fetal lung fibroblast)” value ([2]; 72 h) was 21 µM.
With `C[C@@H](c1ccccc1)N(CC(N)=O)C(=O)CN(CCCCN)C(=O)CN(C(=O)CN(C(=O)CN(CCCCN)C(=O)CN(C(=O)CN(C(=O)CN(CCCCN)C(=O)CN(C(=O)CN(C(=O)CNCCCCN)[C@@H](C)c1ccccc1)[C@@H](C)c1ccccc1)[C@@H](C)c1ccccc1)[C@@H](C)c1ccccc1)[C@@H](C)c1ccccc1)[C@@H](C)c1ccccc1` [1 11mer, H-(NLys-Nspe-Nspe)3-NLys-Nspe-NH2] (H-[Nlys][Nspe][Nspe][Nlys][Nspe][Nspe][Nlys][Nspe][Nspe][Nlys][Nspe]-NH2) the “LC50 Primary dermal fibroblast” value ([1]; 72 h) was 19 µM, the “LC50 MCF-7 (breast cancer)” value (MCF-7 (breast cancer); 72 h) was 11 µM and the “LC50 LNCaP (prostate cancer)” value (LNCaP (prostate cancer); 72 h) was 10 µM. For the same molecule, the HC10 (human red blood cells) was 103 µM, the “LC50 OVCAR3 (ovarian cancer)” value (OVCAR3 (ovarian cancer); 72 h) was 10 µM and the HPLC elution [3] was 63.5 % ACN. The “LC50 MRC-5 (fetal lung fibroblast)” value ([2]; 72 h) was 24 µM.
For `C[C@@H](c1ccccc1)N(CC(N)=O)C(=O)CN(C(=O)CN(CCCCNC(=N)N)C(=O)CN(C(=O)CN(C(=O)CN(CCCCNC(=N)N)C(=O)CN(C(=O)CN(C(=O)CN(CCCCNC(=N)N)C(=O)CN(C(=O)CN(C(=O)CNCCCCNC(=N)N)[C@@H](C)c1ccccc1)[C@@H](C)c1ccccc1)[C@@H](C)c1ccccc1)[C@@H](C)c1ccccc1)[C@@H](C)c1ccccc1)[C@@H](C)c1ccccc1)[C@@H](C)c1ccccc1` [Peptoid 1-Nbtg, H-(Nbtg-Nspe-Nspe)4-NH2] (H-[NhArg][Nspe][Nspe][NhArg][Nspe][Nspe][NhArg][Nspe][Nspe][NhArg][Nspe][Nspe]-NH2), the “LC50 Primary dermal fibroblast” value ([1]; 72 h) was 8 µM, the “LC50 MCF-7 (breast cancer)” value (MCF-7 (breast cancer); 72 h) was 5 µM and the “LC50 LNCaP (prostate cancer)” value (LNCaP (prostate cancer); 72 h) was 8 µM. For the same molecule, the “LC50 OVCAR3 (ovarian cancer)” value (OVCAR3 (ovarian cancer); 72 h) was 8 µM and the “LC50 MRC-5 (fetal lung fibroblast)” value ([2]; 72 h) was 10 µM.
With `CC[C@H](C)[C@H](NC(=O)[C@H](CCCCN)NC(=O)[C@H](CCC(=O)O)NC(=O)[C@H](CCCCN)NC(=O)[C@H](CO)NC(=O)[C@H](CCCCN)NC(=O)[C@H](CCCNC(=N)N)NC(=O)[C@H](Cc1ccccc1)NC(=O)[C@H](Cc1ccccc1)NC(=O)[C@H](CC(=O)O)NC(=O)CNC(=O)[C@H](CC(C)C)NC(=O)[C@@H](N)CC(C)C)C(=O)NCC(=O)N[C@@H](CCCCN)C(=O)N[C@@H](CCC(=O)O)C(=O)N[C@@H](Cc1ccccc1)C(=O)N[C@@H](CCCCN)C(=O)N[C@@H](CCCNC(=N)N)C(=O)N[C@H](C(=O)N[C@H](C(=O)N[C@@H](CCC(N)=O)C(=O)N[C@@H](CCCNC(=N)N)C(=O)N[C@H](C(=O)N[C@@H](CCCCN)C(=O)N[C@@H](CC(=O)O)C(=O)N[C@@H](Cc1ccccc1)C(=O)N[C@@H](CC(C)C)C(=O)N[C@@H](CCCNC(=N)N)C(=O)N[C@@H](CC(N)=O)C(=O)N[C@@H](CC(C)C)C(=O)N[C@H](C(=O)N1CCC[C@H]1C(=O)N[C@@H](CCCNC(=N)N)C(=O)N[C@H](C(=O)N[C@@H](CCC(=O)O)C(=O)N[C@@H](CO)C(=O)O)[C@@H](C)O)C(C)C)[C@@H](C)CC)C(C)C)[C@@H](C)CC` [LL 37, LL-37, reference compound] the “LC50 Primary dermal fibroblast” value ([1]; 72 h) was 26 µM, the “LC50 MCF-7 (breast cancer)” value (MCF-7 (breast cancer); 72 h) was 21 µM and the “LC50 LNCaP (prostate cancer)” value (LNCaP (prostate cancer); 72 h) was 27 µM. For the same molecule, the “LC50 OVCAR3 (ovarian cancer)” value (OVCAR3 (ovarian cancer); 72 h) was 24 µM and the “LC50 MRC-5 (fetal lung fibroblast)” value ([2]; 72 h) was 24 µM.
